Test results: patent US7135466B2 (Kirin Beer Kabushiki Kaisha, priority 1999, dated 2006)
Where two headings read alike, the source gives them in different places.

Tests used:
PDGF-Ra = target: T1, PDGF-Ra (Homo sapiens, UniProt P16234); assay: Inhibitory activity against PDGF-Ra phosphorylation by PDGF-AA stimulation using G292; format: cell-based; details: for IC50: > means inhibition at indicated concentration not more than 50%, < and << not less than 50%, read-out: PDGF (E) IC50; for inhibition at 0.1 µM: G292, figure within parentheses in >100( ), at 100 nM, read-out: PDGF (E) inhibition (%) at 100 nM
T1 construct: host or cells: G-292 human osteosarcoma cells
Outline: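 G-292 human osteosarcoma cells in 0.1% FBS medium overnight, given compound for 1 hr at 37° C, then PDGF-AA 50 ng/ml for 5 min. Lysates captured on anti-phosphotyrosine (PY-20) plates and probed with anti-PDGF-Ra plus HRP secondary; absorbance at 450 nm.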

c-kit = target: T2, c-kit (Homo sapiens, UniProt P10721); assay: Inhibitory activity against c-kit autophosphorylation (MO7e cells, h-SCF); format: cell-based; details: for IC50: MO7e cells, read-out: c-kit IC50; for inhibition at 1 µM: Mo7e, at 1000 nM
T2 construct: MO7e (human megakaryocytic leukemia cell line) which had been arrested for 20 hr; endogenous in cells; host or cells: MO7e human megakaryocytic leukemia cell line
Outline: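 Phospho-c-kit ELISA: plate-bound PY-20 anti-phosphotyrosine captures lysate, anti-c-kit plus peroxidase-labelled secondary antibody detect, read at 450 nm. Lysates come from 20 hr-arrested MO7e cells given compound for 1 hr before a 5 min 50 ng/ml h-SCF stimulus.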

[1] = figure within parentheses in −( ) or >1000( )

T2 sequence (P10721 26-976): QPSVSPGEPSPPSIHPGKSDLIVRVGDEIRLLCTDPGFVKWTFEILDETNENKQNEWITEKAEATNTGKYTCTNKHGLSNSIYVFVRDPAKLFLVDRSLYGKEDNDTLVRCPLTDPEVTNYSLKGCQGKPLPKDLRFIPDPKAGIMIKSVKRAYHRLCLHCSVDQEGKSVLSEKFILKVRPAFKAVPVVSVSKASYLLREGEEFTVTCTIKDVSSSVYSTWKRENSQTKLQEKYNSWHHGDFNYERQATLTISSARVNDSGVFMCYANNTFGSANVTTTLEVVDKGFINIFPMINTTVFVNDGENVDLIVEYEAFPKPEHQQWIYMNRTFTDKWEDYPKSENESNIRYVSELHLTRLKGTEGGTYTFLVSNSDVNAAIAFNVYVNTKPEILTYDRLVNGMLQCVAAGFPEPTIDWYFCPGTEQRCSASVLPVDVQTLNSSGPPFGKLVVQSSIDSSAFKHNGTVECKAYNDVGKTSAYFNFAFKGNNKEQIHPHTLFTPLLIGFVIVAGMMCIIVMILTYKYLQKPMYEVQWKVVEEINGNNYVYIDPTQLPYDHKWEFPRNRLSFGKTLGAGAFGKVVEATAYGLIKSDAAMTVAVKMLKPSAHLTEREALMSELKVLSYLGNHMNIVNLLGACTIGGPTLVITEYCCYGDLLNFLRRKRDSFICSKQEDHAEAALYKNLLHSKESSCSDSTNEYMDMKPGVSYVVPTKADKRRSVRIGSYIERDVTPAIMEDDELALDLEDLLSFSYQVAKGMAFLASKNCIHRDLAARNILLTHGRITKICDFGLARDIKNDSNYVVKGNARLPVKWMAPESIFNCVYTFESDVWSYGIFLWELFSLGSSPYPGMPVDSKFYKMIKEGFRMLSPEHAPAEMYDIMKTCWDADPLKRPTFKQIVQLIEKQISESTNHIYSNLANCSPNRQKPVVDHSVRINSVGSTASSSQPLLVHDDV
T1 sequence (P16234 24-1089): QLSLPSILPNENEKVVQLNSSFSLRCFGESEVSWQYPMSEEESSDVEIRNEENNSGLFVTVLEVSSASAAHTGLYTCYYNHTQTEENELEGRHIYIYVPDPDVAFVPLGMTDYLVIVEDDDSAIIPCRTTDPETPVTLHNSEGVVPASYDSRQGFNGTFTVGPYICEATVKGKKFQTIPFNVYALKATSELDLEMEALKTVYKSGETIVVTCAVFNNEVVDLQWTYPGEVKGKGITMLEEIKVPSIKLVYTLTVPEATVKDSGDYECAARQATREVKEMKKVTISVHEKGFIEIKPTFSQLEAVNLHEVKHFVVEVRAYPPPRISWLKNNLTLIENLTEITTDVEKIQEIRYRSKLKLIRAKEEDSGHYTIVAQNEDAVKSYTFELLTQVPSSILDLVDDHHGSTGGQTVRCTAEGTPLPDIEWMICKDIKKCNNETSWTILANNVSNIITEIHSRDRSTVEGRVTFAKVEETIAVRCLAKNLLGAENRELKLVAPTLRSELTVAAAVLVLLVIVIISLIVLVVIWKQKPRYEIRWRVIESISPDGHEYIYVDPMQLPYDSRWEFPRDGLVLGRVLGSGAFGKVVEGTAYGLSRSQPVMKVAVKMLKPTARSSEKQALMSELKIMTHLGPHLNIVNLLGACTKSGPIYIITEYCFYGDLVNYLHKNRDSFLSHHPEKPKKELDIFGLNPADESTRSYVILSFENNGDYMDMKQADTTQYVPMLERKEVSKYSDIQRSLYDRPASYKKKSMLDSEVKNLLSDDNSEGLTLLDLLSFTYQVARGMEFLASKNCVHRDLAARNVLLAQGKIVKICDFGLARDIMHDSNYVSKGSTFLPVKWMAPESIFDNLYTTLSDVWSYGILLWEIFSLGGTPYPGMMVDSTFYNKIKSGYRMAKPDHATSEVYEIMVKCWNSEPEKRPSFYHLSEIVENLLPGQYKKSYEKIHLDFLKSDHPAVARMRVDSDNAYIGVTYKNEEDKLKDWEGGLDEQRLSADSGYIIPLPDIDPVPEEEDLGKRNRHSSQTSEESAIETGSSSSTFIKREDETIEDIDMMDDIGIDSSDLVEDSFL

Row | Structure (SMILES) | IC50 (PDGF-Ra; Pharmacological Test Example 1) [nM] | IC50 (c-kit; h-SCF 50 ng/ml) [nM] | IC50 (PDGF-Ra) [nM] | other results
1 | COc1cc2nccc(Oc3ccc(NC(=O)OCC4CCCC4)cc3)c2cc1OC [Example 394, Cyclopentylmethyl N-{4-[(6,7-dimethoxy-4-quinolyl)oxy]phenyl}carbamate] | < 10 | 133 |  | 
2 | CCCCCOc1ccc(C(=O)NC(=S)Nc2ccc(Oc3ccnc4cc(OC)c(OC)cc34)cc2)cc1 [Example 753, N-{4-[(6,7-Dimethoxy-4-quinolyl)oxy]phenyl}-N′-[4-(pentyloxy)benzoyl]thiourea] |  |  | > 100 | inhibition at 0.1 µM (PDGF-Ra): 28%; inhibition at 1 µM (c-kit; [1]): 9%
3 | COc1cc2ncnc(Oc3ccc(NC(=O)NCCN4CCOCC4)cc3)c2cc1OC [Example 629, N-{4-[(6,7-Dimethoxy-4-quinazolinyl)oxy]phenyl}-N′-(2-morpholinoethyl)urea] |  |  | < 10 | IC50 (c-kit; 50 ng/ml h-SCF): 481 nM
4 | CCCC(C)C(=O)NC(=S)Nc1ccc(Oc2ncnc3cc(OC)c(OC)cc23)cc1 (stereo not drawn) [Example 1201, N-{4-[(6,7-Dimethoxy-4-quinazolinyl)oxy]phenyl}-N′-(2-methylpentanoyl)thiourea] |  |  | < 10 | IC50 (c-kit; h-SCF stimulation): 450 nM
5 | COc1cc2ncnc(Oc3ccc(NC(=O)NC4CCN(Cc5ccccc5C)C4)c([N+](=O)[O-])c3)c2cc1OC (stereo not drawn) [Example 570, N-{4-[(6,7-Dimethoxy-4-quinazolinyl)oxy]-2-nitrophenyl}-N′-[1-(2-methylbenzyl)tetrahydro-1H-3-pyrrolyl]urea] |  |  | 23 | IC50 (c-kit; 50 ng/ml h-SCF): 173 nM
6 | COc1cc2nccc(Oc3ccc(NC(=O)OCC4CCCCCC4)c(C)c3C)c2cc1OC [Example 350, Cycloheptylmethyl N-{4-[(6,7-dimethoxy-4-quinolyl)oxy]-2,3-dimethylphenyl}carbamate] | < 10 | 238 |  | 
7 | COc1cc2nccc(Oc3ccc(NC(=O)OCCCc4ccccc4)c(C)c3C)c2cc1OC [Example 378, 3-Phenylpropyl N-{4-[(6,7-dimethoxy-4-quinolyl)oxy]-2,3-dimethylphenyl}carbamate] | 14 | 92 |  | 
8 | COc1cc2nccc(Oc3ccc(NC(=S)NC(=O)c4ccc(CCl)cc4)c(F)c3)c2cc1OC [Example 996, N-[4-(Chloromethyl)benzoyl]-N′-{4-[(6,7-dimethoxy-4-quinolyl)oxy]-2-fluorophenyl}thiourea] |  |  | 53 | inhibition at 1 µM (c-kit; figure in parentheses in −( )): 27%
9 | COc1cc2nccc(Oc3cc(C)c(NC(=O)OC(C)c4cccc(Br)c4)cc3C)c2cc1OC (stereo not drawn) [Example 119, 1-(3-Bromophenyl)ethyl N-{4-[(6,7-dimethoxy-4-quinolyl)oxy]-2,5-dimethylphenyl}carbamate] | > 100 |  |  | inhibition at 1 µM (c-kit; figure in parentheses in −( )): 31%
10 | COc1cc2nccc(Oc3ccc(NC(=S)NC(=O)Cc4cccs4)c(C)c3)c2cc1OC [Example 700, N-{4-[(6,7-Dimethoxy-4-quinolyl)oxy]-2-methylphenyl}-N′-[2-(2-thienyl)acetyl]thiourea] |  |  | > 100 | inhibition at 0.1 µM (PDGF-Ra): 30%; inhibition at 1 µM (c-kit; [1]): 0%
11 | COc1cc2ncnc(Oc3ccc(NC(=O)OC(C)c4ccccc4Cl)cc3)c2cc1OC (stereo not drawn) [Example 15, 1-(2-Chlorophenyl)ethyl N-{4-[(6,7-dimethoxy-4-quinazolinyl)oxy]phenyl}carbamate] | 21 |  |  | inhibition at 1 µM (c-kit; figure in parentheses in −( )): 48%
12 | C#CCC(CC)OC(=O)Nc1cc(C)c(Oc2ccnc3cc(OC)c(OC)cc23)cc1C (stereo not drawn) [Example 409, 1-Ethyl-3-butynyl N-{4-[(6,7-dimethoxy-4-quinolyl)oxy]-2,5-dimethylphenyl}carbamate] |  |  | 26 | IC50 (c-kit; 50 ng/ml h-SCF): 392 nM
13 | CCOc1ccccc1C(C)OC(=O)Nc1ccc(Oc2ncnc3cc(OC)c(OC)cc23)cc1 (stereo not drawn) [Example 130, 1-(2-Ethoxyphenyl)ethyl N-{4-[(6,7-dimethoxy-4-quinazolinyl)oxy]phenyl}carbamate] | < 10 | 714 |  | 
14 | COc1cc2ncnc(Oc3cc(C)c(NC(=O)OC4CCCCC4)cc3C)c2cc1OC [Example 390, Cyclohexyl N-{4-[(6,7-dimethoxy-4-quinazolinyl)oxy]-2,5-dimethylphenyl}carbamate] | 33 | 400 |  | 
15 | COc1cc2ncnc(Oc3ccc(NC(=O)OCCCOc4ccc(Cl)cc4)c(Cl)c3)c2cc1OC [Example 31, 3-(4-Chlorophenoxy)propyl N-{2-chloro-4-[(6,7-dimethoxy-4-quinazolinyl)oxy]phenyl}carbamate] | < 10 | 221 |  | 
16 | CCCCc1ccc(C(=O)NC(=S)Nc2ccc(Oc3ccnc4cc(OC)c(OC)cc34)cc2F)cc1 [Example 995, N-(4-Butylbenzoyl)-N′-{4-[(6,7-dimethoxy-4-quinolyl)oxy]-2-fluorophenyl}thiourea] |  |  | 87 | inhibition at 1 µM (c-kit; figure in parentheses in −( )): 23%
17 | COc1cc2ncnc(Oc3ccc(NC(=O)NN4CCCCC4)c([N+](=O)[O-])c3)c2cc1OC [Example 597, N-{4-[(6,7-Dimethoxy-4-quinazolinyl)oxy]-2-nitrophenyl}-N′-(1-piperidinyl)urea] |  |  | > 100 | inhibition at 0.1 µM (PDGF-Ra): 27%; inhibition at 1 µM (c-kit; [1]): 8%
18 | COc1cc2ncnc(Oc3ccc(NC(=S)NC(=O)C4CC4c4ccccc4)cc3)c2cc1OC (stereo not drawn) [Example 1060, N-{4-[(6,7-Dimethoxy-4-quinazolinyl)oxy]phenyl}-N′-[(2-phenylcyclopropyl)carbonyl]thiourea] |  |  | 39 | inhibition at 1 µM (c-kit; figure in parentheses in −( )): 30%
19 | COc1cc2nccc(Oc3ccc(NC(=O)OCCN4CCCCC4)cc3)c2cc1OC [Example 303, 2-Piperidinoethyl N-{4-[(6,7-dimethoxy-4-quinolyl)oxy]phenyl}carbamate] | 11 | 188 |  | 
20 | COc1cc2nccc(Oc3ccc(NC(=S)NC(=O)C4C(C)(C)C4(C)C)cc3Cl)c2cc1OC [Example 760, N-{3-Chloro-4-[(6,7-dimethoxy-4-quinolyl)oxy]phenyl}-N′-[(2,2,3,3-tetramethylcyclopropyl)carbonyl]thiourea] |  |  | 83 | inhibition at 1 µM (c-kit; [1]): 48%
21 | COc1cc2nccc(Oc3ccc(NC(=S)NC(=O)CCCc4ccccc4)cc3)c2cc1OC [Example 725, N-{4-[(6,7-Dimethoxy-4-quinolyl)oxy]phenyl}-N′-(4-phenylbutanoyl)thiourea] |  |  | < 10 | IC50 (c-kit; 50 ng/ml h-SCF): 413 nM
22 | COc1cc2ncnc(Oc3ccc(NC(=O)NN4CCCCC4)cc3)c2cc1OC [Example 603, N-{4-[(6,7-Dimethoxy-4-quinazolinyl)oxy]phenyl}-N′-(1-piperidinyl)urea] |  |  | > 100 | inhibition at 0.1 µM (PDGF-Ra): 42%; IC50 (c-kit; 50 ng/ml h-SCF): 864 nM
23 | COc1cc2ncnc(Oc3ccc(NC(=O)OCCSc4ccc(C)cc4)c(Cl)c3)c2cc1OC [Example 141, 3-[(4-Methylphenyl)sulfanyl]ethyl N-{2-chloro-4-[(6,7-dimethoxy-4-quinazolinyl)oxy]phenyl}carbamate] | 36 |  |  | inhibition at 1 µM (c-kit; figure in parentheses in −( )): 26%
24 | COc1cc2ncnc(Oc3ccc(NC(=O)OCCCSc4ccc(C)cc4)cc3)c2cc1OC [Example 40, 3-[(4-Methylphenyl)sulfanyl)propyl N-{4-[(6,7-dimethoxy-4-quinazolinyl)oxy]phenyl}carbamate] | < 10 | 55 |  | 
25 | CCCCOC(=O)Nc1ccc(Oc2ccnc3cc(OC)c(OC)cc23)c(C)c1C [Example 323, Butyl N-{4-[(6,7-dimethoxy-4-quinolyl)oxy]-2,3-dimethylphenyl}carbamate] | < 10 | < 30 |  | 
